# According to patent publication US12018021B2 (UCB Biopharma SRL, priority 2018, dated 2024):
# Target: IgE-Tb / sFcεRIα-Y131A-AF488 (Homo sapiens, UniProt P01854, N146Q/N252Q)
# Assay: IgE-Tb / sFcεRIα-Y131A-AF488 FRET assay (protocol for examples 234 to 501)
# Format: binding
# Conditions: examples 234 to 501: compound with IgE-Tb 30 minutes before sFcεRIα-Y131A-AF488, incubated 18 hours at room temperature; read-out: Y131A FRET IC50 range
# Outline: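 Compounds (10-point 3-fold series, top usually 10 μM, 2% DMSO) preincubated 30 min with 5 nM IgE-Tb, then 25 nM sFcεRIα-Y131A-AF488 added; 18 h at room temperature in the dark. TR-FRET ratio 520/490 nm after 337 nm excitation, background-subtracted; IC50 by four-parameter logistic fit.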
# Sequence of IgE-Tb / sFcεRIα-Y131A-AF488 (P01854 whole entry N146Q/N252Q): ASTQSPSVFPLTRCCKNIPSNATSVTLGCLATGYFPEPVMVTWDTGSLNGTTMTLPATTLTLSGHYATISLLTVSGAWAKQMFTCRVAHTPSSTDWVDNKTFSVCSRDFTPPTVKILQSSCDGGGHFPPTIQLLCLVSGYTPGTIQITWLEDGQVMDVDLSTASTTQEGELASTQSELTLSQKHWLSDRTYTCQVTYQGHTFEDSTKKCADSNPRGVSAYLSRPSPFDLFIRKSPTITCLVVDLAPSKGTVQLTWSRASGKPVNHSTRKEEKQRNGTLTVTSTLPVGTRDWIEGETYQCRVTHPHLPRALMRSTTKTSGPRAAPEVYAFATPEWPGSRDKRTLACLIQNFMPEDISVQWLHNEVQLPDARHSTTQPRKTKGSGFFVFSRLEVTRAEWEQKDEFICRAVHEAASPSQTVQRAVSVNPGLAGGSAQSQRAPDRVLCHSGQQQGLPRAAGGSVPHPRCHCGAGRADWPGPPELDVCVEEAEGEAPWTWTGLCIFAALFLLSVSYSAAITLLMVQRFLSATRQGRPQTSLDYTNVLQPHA
row,SMILES,IC50 [nM]
1,"Cn1nc(C(F)(F)F)cc1Nc1nncn1[C@H]1CCc2sc(NC(=O)[C@H]3C[C@H]3F)c(C(=O)N[C@H]3C[C@H](F)C3)c2C1 [Example 402, (5S)—N-(trans-3-fluorocyclobutyl)-2-[[(1R,2R)-2-fluorocyclopropanecarbonyl]amino]-5-[3-[[2-methyl-5-(trifluoromethyl)pyrazol-3-yl]amino]-1,2,4-triazol-4-yl]-4,5,6,7-tetrahydro-1-benzothiophene-3-carboxamide]",< 1000
2,"[2H]C([2H])([2H])n1nc(C(F)F)cc1Nc1nncn1[C@H]1CCc2sc(NC(=O)C3CC3)c(C(=O)NCC3CC3)c2C1 [Example 403, (5S)-2-(cyclopropanecarbonylamino)-N-(cyclopropylmethyl)-5-[3-[[5-(difluoromethyl)-2-(trideuteriomethyl)pyrazol-3-yl]amino]-1,2,4-triazol-4-yl]-4,5,6,7-tetrahydrobenzothiophene-3-carboxamide]",< 1000
3,"Cn1nc(C(F)F)cc1Nc1nncn1[C@H]1CCc2sc(NC(=O)[C@H]3CC34CC4)c(C(=O)NC[C@H]3C[C@H](F)C3)c2C1 [Example 404, (5S)-5-[3-[[5-(Difluoromethyl)-2-methylpyrazol-3-yl]amino]-1,2,4-triazol-4-yl]-N-[trans-(3-fluorocyclobutyl)methyl]-2-[[(2S)-spiro[2.2]pentane-2-carbonyl]amino]-4,5,6,7-tetrahydro-1-benzothiophene-3-carboxamide]",< 1000
4,"Cn1nc(C(F)F)cc1Nc1nncn1[C@H]1CCc2sc(NC(=O)[C@H]3CC34CC4)c(C(=O)N[C@H]3C[C@H](F)C3)c2C1 [Example 405, (5S)-5-[3-[[5-(Difluoromethyl)-2-methylpyrazol-3-yl]amino]-1,2,4-triazol-4-yl]-N-(trans-3-fluorocyclobutyl)-2-[[(2S)-spiro[2.2]pentane-2-carbonyl]amino]-4,5,6,7-tetrahydro-1-benzothiophene-3-carboxamide]",< 1000
5,"Cn1nc(C(F)F)cc1Nc1nncn1[C@H]1CCc2sc(NC(=O)[C@H]3CC34CC4)c(C(=O)NC3CC(F)(F)C3)c2C1 [Example 406, (5S)—N-(3,3-Difluorocyclobutyl)-5-[3-[[5-(difluoromethyl)-2-methylpyrazol-3-yl]amino]-1,2,4-triazol-4-yl]-2-[[(2S)-spiro[2.2]pentane-2-carbonyl]amino]-4,5,6,7-tetrahydro-1-benzothiophene-3-carboxamide]",< 1000
6,"Cn1nc(C(F)F)cc1Nc1nncn1[C@H]1CCc2sc(NC(=O)[C@H]3CC34CC4)c(C(=O)NCC3CC(F)(F)C3)c2C1 [Example 407, (5S)—N-[(3,3-Difluorocyclobutyl)methyl]-5-[3-[[5-(difluoromethyl)-2-methylpyrazol-3-yl]amino]-1,2,4-triazol-4-yl]-2-[[(2S)-spiro[2,2]pentane-2-carbonyl]amino]-4,5,6,7-tetrahydro-1-benzothiophene-3-carboxamide]",< 1000
7,"Cn1nc(C(F)F)cc1Nc1nncn1[C@H]1CCc2sc(NC(=O)[C@H]3CC34CC4)c(C(=O)NC[C@H]3C[C@H]3F)c2C1 [Example 412, (5S)-5-[3-[[5-(Difluoromethyl)-2-methylpyrazol-3-yl]amino]-1,2,4-triazol-4-yl]-N-[[(1R,2R)-2-fluorocyclopropyl]methyl]-2-[[(2S)-spiro[2.2]pentane-2-carbonyl]amino]-4,5,6,7-tetrahydro-1-benzothiophene-3-carboxamide]",< 1000
8,"Cn1nc(C(F)F)cc1Nc1nncn1[C@H]1CCc2sc(NC(=O)[C@H]3CC34CC4)c(C(=O)NC[C@H]3C[C@@H]3F)c2C1 [Example 413, (5S)-5-[3-[[5-(Difluoromethyl)-2-methylpyrazol-3-yl]amino]-1,2,4-triazo-4-yl]-N-[[(1R,2S)-2-fluorocyclopropyl]methyl]-2-[[(25)-spiro[2.2]pentane-2-carbonyl]amino]-4,5,6,7-tetrahydro-1-benzothiophene-3-carboxamide]",< 1000
9,"Cn1nc(C(F)F)cc1Nc1nncn1[C@H]1CCc2sc(NC(=O)[C@H]3CC34CC4)c(C(=O)N[C@H]3CC34CC4)c2C1 [Example 414, (5S)-5-[3-[[5-(difluoromethyl)-2-methyl-pyrazol-3-yl]amino]-1,2,4-triazol-4-yl]-2-[[(2S)-spiro[2.2]pentane-2-carbonyl]amino]-N-[(25)-spiro[2.2]pentan-2-yl]-4,5,6,7-tetrahydrobenzothiophene-3-carboxamide]",< 1000
10,"Cn1nc(C(F)F)cc1Nc1nncn1[C@H]1CCc2sc(NC(=O)[C@H]3CC34CC4)c(C(=O)N[C@@H]3CC34CC4)c2C1 [Example 415, (5S)-5-[3-[[5-(difluoromethyl)-2-methyl-pyrazol-3-yl]amino]-1,2,4-triazol-4-yl]-2-[[(2S)-spiro[2.2]pentane-2-carbonyl]amino]-N-[(2R)-spiro[2.2]pentan-2-yl]-4,5,6,7-tetrahydrobenzothiophene-3-carboxamide]",< 1000
11,"Cn1nc(C(F)F)cc1Nc1nncn1[C@H]1CCc2sc(NC(=O)[C@H]3CC34CC4)c(C(=O)NCC3CC3)c2C1 [Example 416, (5S)—N-(Cyclopropylmethyl)-5-[3-[[5-(difluoromethyl)-2-methyl-pyrazol-3-yl]amino]-1,2,4-triazol-4-yl]-2-[[(2S)-spiro[2.2]pentane-2-carbonyl]amino]-4,5,6,7-tetrahydrobenzothiophene-3-carboxamide]",< 1000
12,"Cn1nc(C#N)cc1Nc1nncn1[C@H]1CCc2sc(NC(=O)C3CC3)c(C(=O)NCC3CC3)c2C1 [Example 418, (5S)-5-[3-[(5-Cyano-2-methyl-pyrazol-3-yl)amino]-1,2,4-triazol-4-yl]-2-(cyclopropanecarbonylamino)-N-(cyclopropylmethyl)-4,5,6,7-tetrahydrobenzothiophene-3-carboxamide]",< 1000
13,"O=C(NCC1CC1)c1c(NC(=O)C2CC2)sc2c1C[C@@H](n1cnnc1Nc1ccc3c(c1)OC(F)(F)O3)CC2 [Example 419, (5S)-2-(Cyclopropanecarbonylamino)-N-(cyclopropylmethyl)-5-[3-[(2,2-difluoro-1,3-benzodioxol-5-yl)amino]-1,2,4-triazol-4-yl]-4,5,6,7-tetrahydrobenzothiophene-3-carboxamide]",< 1000
14,"Cn1nc(C(F)F)cc1Nc1nncn1[C@H]1CCc2sc(NC(=O)[C@H]3CC34CC4)c(C(=O)NC[C@@H]3C[C@@H]3F)c2C1 [Example 420, (5S)-5-[3-[[5-(Difluoromethyl)-2-methyl-pyrazol-3-yl]amino]-1,2,4-triazol-4-yl]-N-[[(1S,2S)-2-fluorocyclopropyl]methyl]-2-[[(2S)-spiro[2.2]pentane-2-carbonyl]amino]-4,5,6,7-tetrahydrobenzothiophene-3-carboxamide]",< 1000
15,"O=C(NCC1CC1)c1c(NC(=O)C2CC2)sc2c1C[C@@H](n1cnnc1Nc1ccc(C(F)F)nc1)CC2 [Example 423, (5S)-2-(cyclopropanecarbonylamino)-N-(cyclopropylmethyl)-5-[3-[[6-(difluoromethyl)-3-pyridyl]amino]-1,2,4-triazol-4-yl]-4,5,6,7-tetrahydrobenzothiophene-3-carboxamide]",< 1000
16,"Cc1nc(F)ccc1Nc1nncn1[C@H]1CCc2sc(NC(=O)C3CC3)c(C(=O)NCC3CC3)c2C1 [Example 424, (5S)-2-(cyclopropanecarbonylamino)-N-(cyclopropylmethyl)-5-[3-[(6-fluoro-2-methyl-3-pyridyl)amino]-1,2,4-triazol-4-yl]-4,5,6,7-tetrahydrobenzothiophene-3-carboxamide]",< 1000
17,Cn1nc(OC2CC2)cc1Nc1nncn1[C@H]1CCc2sc(NC(=O)[C@H]3C[C@@H]3F)c(C(=O)NCC3CC3)c2C1 [Example 425],< 1000
18,"Cn1nc(OCC(F)(F)F)cc1Nc1nncn1[C@H]1CCc2sc(NC(=O)[C@H]3C[C@@H]3F)c(C(=O)NCC3CC3)c2C1 [Example 426, (5S)—N-(cyclopropylmethyl)-2-[[(1R,2S)-2-fluorocyclopropanecarbonyl]amino]-5-[3-[[2-methyl-5-(2,2,2-trifluoroethoxy)pyrazol-3-yl]amino]-1,2,4-triazol-4-yl]-4,5,6,7-tetrahydrobenzothiophene-3-carboxamide]",< 1000
19,"O=C(NCC1CC1)c1c(NC(=O)C2CC2)sc2c1C[C@@H](n1cnnc1Nc1ccc(C(F)(F)F)nc1)CC2 [Example 427, (5S)-2-(cyclopropanecarbonylamino)-N-(cyclopropylmethyl)-5-[3-[[6-(trifluoromethyl)-3-pyridyl]amino]-1,2,4-triazol-4-yl]-4,5,6,7-tetrahydrobenzothiophene-3-carboxamide]",< 1000
20,"COc1ccc(Nc2nncn2[C@H]2CCc3sc(NC(=O)C4CC4)c(C(=O)NCC4CC4)c3C2)cn1 [Example 428, (5S)-2-(cyclopropanecarbonylamino)-N-(cyclopropylmethyl)-5-[3-[(6-methoxy-3-pyridyl)amino]-1,2,4-triazol-4-yl]-4,5,6,7-tetrahydrobenzothiophene-3-carboxamide]",< 1000
21,"COc1cc(Nc2nncn2[C@H]2CCc3sc(NC(=O)C4CC4)c(C(=O)NCC4CC4)c3C2)ccn1 [Example 429, (5S)-2-(cyclopropanecarbonylamino)-N-(cyclopropylmethyl)-5-[3-[(2-methoxy-4-pyridyl)amino]-1,2,4-triazol-4-yl]-4,5,6,7-tetrahydrobenzothiophene-3-carboxamide]",< 1000
22,"O=C(NCC1CC1)c1c(NC(=O)C2CC2)sc2c1C[C@@H](n1cnnc1Nc1ccc(Cl)nc1)CC2 [Example 430, (5S)-5-[3-[(6-chloro-3-pyridyl)amino]-1,2,4-triazol-4-yl]-2-(cyclopropanecarbonylamino)-N-(cyclopropylmethyl)-4,5,6,7-tetrahydrobenzothiophene-3-carboxamide]",< 1000
